Like-named read-outs stand apart in the source and are kept apart here. Marks after values point to notes of the source that are not given here.
How the values were obtained:
TraR [1] = biological target: T1, TraR (Agrobacterium tumefaciens, UniProt P33905); experiment: Agrobacterium tumefaciens reporter gene assay, WCF47(pCF372), β-galactosidase (Miller) readout; assay type: cell-based; settings: for A. tumefaciens β-galactosidase activity [Miller units] 10^4 nM: antagonism, compound at 10^4 nM screened against 100 nM 8b, strain WCF47(pCF372); for activity against TraR in A. tumefaciens: antagonism screen in presence of native ligand 8b; for activity relative to previously reported antagonists 7g, 8f and 9: controls at 10 μM
T1 construct: Both of these reporter strains lack their native AHL synthases, yet retain active LuxR-type receptors (LasR and TraR proteins, respectively); endogenous in cells; host or cells: A. tumefaciens WCF47(pCF372)
Description: (§1) The AHL library constructed by the schema described above, was screened in two bacterial reporter strains for antagonism of quorum sensing: 1) P. aeruginosa PAO-JP2(plasI-LVAgfp), (De Kievit, T. R.; Gillis, R.; Marx, S.; Brown, C.; Iglewski, B. H. Appl. Environ. Microbiol. 2001, 67, 1865-1873) and 2) A. tumefaciens WCF47 (pCF372). Examination of these two strains was valuable for two reasons: 1) the direct clinical relevance of P. aeruginosa, and 2), the extensive body of biochemical and structural data for TraR in A. tumefaciens. Both of these reporter strains lack their native AHL synthases, yet retain active LuxR-type receptors (LasR and TraR proteins, respectively); exogenous ligand is required for receptor activation, which can be measured by fluorescence (green fluorescent protein (GFP) for LasR) or absorbance (via β-galactosidase activity for TraR) measurements.
An appropriate amount of concentrated AHL stock solution, to give a final concentration of 100 nM, was added to an empty culture tube, and the solvent was allowed to evaporate. An overnight culture of A. tumefaciens WCF47(pCF372) was diluted to an OD600 (optical density) of 0.1 in fresh AB minimal medium containing 400 μg/mL octopine and 50 μg/mL streptomycin. A 1 mL portion of the diluted culture was added to the tubes containing AHLs. Tubes were grown at 28° C. for 12-16 h in a rotary shaking incubator (200 rpm).
The cultures were then assayed for β-galactosidase activity following the Miller assay method. Briefly, 100 μL aliquots of bacteria from each of the tubes were added to wells of a polystyrene 96-well plate and the OD600 of each well was recorded. Next, […] aliquots from each well were transferred to a solvent resistant 96-well plate containing 200 μL Z buffer, 8 μL CHCl3 and 4 μL, 0.1% aq. sodium dodecylsulfate (SDS). This suspension was mixed via repetitive pipetting, after which the CHCl3 was allowed to settle. A 100 μL aliquot from each well was transferred to a fresh polystyrene 96-well plate, and 20 μL of substrate, o-nitrophenyl-β-D-galactopyranoside (ONPG, […] in phosphate buffer), was added at time zero. After the development of appropriate yellow color (ca. 15-35 minutes), the reaction was terminated by the addition of 50 μL of 1 M Na2CO3. Absorbance at 420 nm and 550 nm was measured for each well using a plate reader, and Miller units were calculated according to standard methods.
Similar methods were used for antagonism assays, except the concentration of AHL analog used was 10^4 nM, and OOHL (8b) stock solution was added to each tube such that its concentration was 100 nM (FIG. 30). […] All assays were performed in triplicate.

TraR [2] = biological target: T1, TraR; experiment: as above; assay type: cell-based; settings: for A. tumefaciens β-galactosidase activity [Miller units] 100 nM: antagonism, compound at 100 nM screened against 100 nM 8b, strain WCF47(pCF372)
LasR = biological target: T2, LasR (Pseudomonas aeruginosa, UniProt P25084); experiment: Pseudomonas aeruginosa reporter gene assay, PAO-JP2(plasI-LVAgfp), GFP fluorescence readout; assay type: cell-based; settings: for P. aeruginosa Relative fluorescence [%] 12.5 μM / P. aeruginosa Relative fluorescence [%] 400 μM: antagonism, relative to agonism by 8d at 1 μM set to 100%; for P. aeruginosa Relative fluorescence [%] 12.5 μM: compound at 12.5 μM screened against 1 μM 8d; for P. aeruginosa Relative fluorescence [%] 400 μM: compound at 400 μM screened against 1 μM 8d; for antagonism against LasR in P. aeruginosa: antagonism screen in presence of native ligand 8d; for activity relative to the three controls (7g, 8f, 9): at 400 μM
T2 construct: Both of these reporter strains lack their native AHL synthases, yet retain active LuxR-type receptors (LasR and TraR proteins, respectively); endogenous in cells; host or cells: P. aeruginosa PAO-JP2(plasI-LVAgfp)
Description: as §1
An appropriate amount of concentrated stock solution, to give a final concentration of 1 μM, was added to a polypropylene 96-well plate, and the solvent was allowed to evaporate. An overnight culture of P. aeruginosa PAO-JP2(plasI-LVAgfp) was diluted to an OD600 of 0.1 in fresh LB medium containing 200 μg/mL carbenicillin. 200 μL of the diluted culture was added to each well of the plate and incubated at 37° C. for 6 h in a rotary shaking incubator (200 rpm). Cultures were transferred to a polystyrene 96-well plate, GFP expression was measured using a plate reader, and this value was normalized to cell density. Similar methods were used for antagonism assays, illustrated in FIG. […] All assays were performed in triplicate.

[3] = system: P. aeruginosa (PAO1(pLVAgfp)) biofilm formation; experiment: Static biofilm assay, scanning laser confocal microscopy; assay type: cell-based, Pseudomonas aeruginosa; settings: 48 h; for P. aeruginosa biofilm formation: 50 μM ligand, glass slides; for dose dependence of biofilm disruption: 50, 25 and 12.5 μM
Description: Standard static biofilm assays were performed using a P. aeruginosa (PAO1(pLVAgfp)) strain that constitutively produces GFP to facilitate visualization. Biofilms were grown in the absence of ligand (FIG. 34A) and in the presence of 50 μM synthetic ligands 7h (FIG. 34B) or 7o (FIG. 34C), for 48 h and visualized using scanning laser confocal microscopy.
Standard static biofilm assays were performed using a P. aeruginosa PAO1(pTdK-GFP). In brief, an overnight culture was diluted to an OD600 of 0.1 in fresh M9 medium containing 200 μg/mL carbenicillin. This diluted culture was added to a tube containing 50 μM antagonist. Biofilms were grown in the absence of ligand, FIG. 35A; in the presence synthetic ligand 7h, FIG. 35B; and in the presence of synthetic ligand 7o, FIG. 35C (both at 50 μM) for 48 h and visualized using scanning laser confocal microscopy. A sterilized glass coverslip was added to each tube, and the culture was incubated at 37° C. for 48 h without shaking. Coverslips were removed, washed with phosphate buffered saline, and examined using scanning laser confocal microscopy methods. Top-down Z series were collected over a distance of ca. 100 μm. Images in FIGS. 35-37 are representative of several experiments performed on separate days.

T1 sequence (P33905 whole entry): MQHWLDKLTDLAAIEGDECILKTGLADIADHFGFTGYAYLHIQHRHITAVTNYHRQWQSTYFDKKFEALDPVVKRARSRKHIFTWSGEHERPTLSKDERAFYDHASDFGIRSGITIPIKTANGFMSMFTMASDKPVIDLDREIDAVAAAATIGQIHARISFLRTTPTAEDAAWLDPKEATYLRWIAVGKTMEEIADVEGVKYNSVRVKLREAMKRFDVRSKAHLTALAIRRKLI
T2 sequence (P25084 whole entry): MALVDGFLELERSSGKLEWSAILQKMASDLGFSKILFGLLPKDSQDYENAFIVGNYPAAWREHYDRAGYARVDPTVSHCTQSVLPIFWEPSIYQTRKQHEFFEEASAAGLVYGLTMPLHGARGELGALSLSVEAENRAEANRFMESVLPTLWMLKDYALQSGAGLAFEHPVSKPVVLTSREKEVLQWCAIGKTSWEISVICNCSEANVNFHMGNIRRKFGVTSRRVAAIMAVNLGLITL

Row | SMILES | IC50 (TraR [1]) [µM] | A. tumefaciens β-galactosidase activity [Miller units] 10^4 nM (TraR [1]) [Miller units] | A. tumefaciens β-galactosidase activity [Miller units] 100 nM (TraR [2]) [Miller units] | IC50 (LasR) [µM] | P. aeruginosa Relative fluorescence [%] 12.5 μM (LasR) [%] | P. aeruginosa Relative fluorescence [%] 400 μM (LasR) [%] | A. tumefaciens β-galactosidase activity [Miller units], control agonism activity (TraR [1]; Control: agonism activity at 100 nM 8b alone) | activity against TraR in A. tumefaciens (TraR [1]) | activity relative to previously reported antagonists 7g, 8f and 9 (TraR [1]) | antagonism against LasR in P. aeruginosa (LasR) | P. aeruginosa Relative fluorescence [%], control relative agonism activity (LasR; Control: relative agonism activity at 1 μM 8d (not at 12.5 μM)) | P. aeruginosa biofilm formation [3] | dose dependence of biofilm disruption [3] | IC50 (TraR [1]; screened against 100 nM 8b, sigmoidal dose-response curve fit, read-out: A. tumefaciens IC50) [µM] | inhibition at 0.1 µM (TraR [2]; read-out: inhibition (TraR antagonism)) [%] | activity relative to the three controls (7g, 8f, 9) (LasR) | IC50 (LasR; screened against 1 μM 8d, sigmoidal dose-response curve fit, read-out: P. aeruginosa IC50) [µM] | inhibition (LasR antagonism) (LasR; at a 12.5:1 ratio with native ligand 8d) [%]
1 | CCCCCCCCCC(=O)CC(=O)Nc1ccccc1O [Compound 9, reference compound] | 4.7 | 186 ± 15 | 396 ± 27 | 37.3 | 63 ± 8 | 23 ± 7 |  |  |  |  |  |  |  |  |  |  |  | 
2 | O=C(CC(=O)N[C@H]1CCOC1=O)Cc1ccccc1 [Compound 8f, N-(3-oxo-4-phenylbutanoyl)-L-homoserine lactone, reference compound] | 0.59 | 51 ± 22 | 310 ± 6 | 53.6 | 82 ± 18 | 27 ± 9 |  |  |  |  |  |  |  |  |  |  |  | 
3 | CCCCCC(=O)CC(=O)N[C@@H]1CCOC1=O [Compound 8b, N-(3-oxo-octanoyl)-L-homoserine lactone, reference compound] |  |  |  |  |  |  | 385 ± 35^g Miller units |  |  |  |  |  |  |  |  |  |  | 
4 | O=C(CC1C=CCC1)N[C@H]1CCOC1=O (stereo partly drawn) [Compound 7k, N-(2-cyclopentene-1-acetanoyl)-L-homoserine lactone] | 1 | 19 ± 8 | 306 ± 8 | 33.1 | 72 ± 8 | 24 ± 7 |  | significant activity | one to two orders of magnitude more active | identified as antagonists |  |  |  |  |  |  |  | 
5 | CCCCCCCCCC(=O)CC(=O)N[C@@H]1CCOC1=O [Compound 8d, N-(3-oxo-dodecanoyl)-L-homoserine lactone, reference compound] |  |  |  |  |  |  |  |  |  |  | 100 ± 8^h % |  |  |  |  |  |  | 
6 | O=C(Cc1ccc(Br)cc1)N[C@H]1CCOC1=O [Compound 7o, N-(4-bromophenylacetanoyl)-L-homoserine lactone] |  | 0 ± 4 | 193 ± 9 |  | 58 ± 21 | 14 ± 5 |  | significant activity | one to two orders of magnitude more active | identified as antagonists |  | strongly inhibit | dose-dependent disruption | 0.25 | 50 | twice as active | 16.1 | 
7 | O=C(CCCc1c[nH]c2ccccc12)N[C@@H]1CCOC1=O [Compound 7h, N-(indole-3-butanoyl)-L-homoserine lactone] | 1.1 | 150 ± 14 | 245 ± 14 | 14.8 | 52 ± 8 | 14 ± 4 |  | significant activity | one to two orders of magnitude more active | identified as antagonists |  | strongly inhibit | dose-dependent disruption |  |  | twice as active |  | 50
8 | CCCCCCC(=O)N[C@H]1CCOC1=O [Compound 7g, N-heptanoyl-L-homoserine lactone, reference compound] | 0.13 | 34 ± 6 | 226 ± 30 | 51.5 | 78 ± 9 | 29 ± 9 |  |  |  |  |  |  |  |  |  |  |  | 

From patent publication US8269024B2, “Compounds and methods for modulating communication and virulence in quorum sensing bacteria” (priority 2005, dated 2012)
